One series addresses T1, human αvβ3 (Homo sapiens, UniProt P05106+P06756).
T1 construct: hαV 1 992; hβ3 1 718; made in house; host or cells: Expi293
The series is described as follows: AlphaLISA integrin-ligand binding assay. In kind it is biochemical. Here is the method:
(§1) In the AlphaLISA integrin assays, we used a HEPES based buffer (25 mM HEPES pH 7.4, 137 mM NaCl, 1 mM MgCl2, 1 mM MnCl2, 2 mM CaCl2, 2.7 mM KCl, and 0.05% Tween-20). Optimal assay conditions were determined with a titration of the reagents for signal noise ratio (S/N), linear range, etc. For the respective integrins, we used the final concentrations described in Supplemental Table S3. Briefly, the testing antibody (8 μL) was added as a 4x (of Final testing concentration) solution in the HEPES buffer described previously into a 384w AlphaPlate (Perkin Elmer #6005350). Then the integrin and ligand were added sequentially as 8x (4 μL each). Plates were sealed and incubated at room temperature for 2 h. Then 4 × acceptor bead solution (8 μL) was added, and the plates were resealed and incubated at RT for 1 h. Finally, 4 × (8 μL) donor beads solution was added in a darkened room and incubated for 45 min at room temperature. Plates were read on the Envision (Perkin Elmer) in AlphaScreen mode within 3 h of donor bead addition.
(§2) Supplemental Table S3. integrin AlphaLIS A assay reagents and conditions Human A l phal i sa Inte gri n A ssays: Fi nal Condi ti ons […]
(§3) ( batch de pe nde nt) anti body A l phaLi sa A cce ptor havb1 1. 4 nM 1. 0 nMα - Fi brone cti n human Fi brone cti n n/a A cce ptor be ads/ Pe rki n 10. 0 ug/ m 10. 0 ug/ m […]
(§4) havb3 3. 0 nM 10. 0 nMhuman V i trone cti n- GST α - GS T A cce p t o r ug/ m Stre ptavi di n Donor ug/ m tagge d n/a be ads/ Pe rki n 15. 0 l be ads/ Pe rki n El me r 15. 0 l […]
(§5) havb6 0. 1 nM 0. 5 nM 3. […]
(§6) Mouse A l phal i sa Inte gri n A ssays: Fi nal Condi ti ons […]
(§7) m aV b 1 4. 3 nM 1. 0 nMmouse f i brone cti n A bcam α - Fi brone cti n ( Rabbi t […]
(§8) 0 nM 5. […] 0nM be ads/ Pe rki n El me r […]
(§9) m aV b 6 1. 4 nM 2. 5 nMmouse LA P- 6Hi s α - 6x HI S / P e rk i n El m e r ug/ m ug/ m m aV b 8 1. 0 nM 2. 5 nMChe mpartne rn/a( A L 128) 15 l 15 l

In the next series the target is T2, mouse α5β1 (Mus musculus, UniProt P09055+P11688).
T2 construct: mα5 1 999; m β1 1 728; made in house; host or cells: Expi293
T2 sequence (P11688 45-999): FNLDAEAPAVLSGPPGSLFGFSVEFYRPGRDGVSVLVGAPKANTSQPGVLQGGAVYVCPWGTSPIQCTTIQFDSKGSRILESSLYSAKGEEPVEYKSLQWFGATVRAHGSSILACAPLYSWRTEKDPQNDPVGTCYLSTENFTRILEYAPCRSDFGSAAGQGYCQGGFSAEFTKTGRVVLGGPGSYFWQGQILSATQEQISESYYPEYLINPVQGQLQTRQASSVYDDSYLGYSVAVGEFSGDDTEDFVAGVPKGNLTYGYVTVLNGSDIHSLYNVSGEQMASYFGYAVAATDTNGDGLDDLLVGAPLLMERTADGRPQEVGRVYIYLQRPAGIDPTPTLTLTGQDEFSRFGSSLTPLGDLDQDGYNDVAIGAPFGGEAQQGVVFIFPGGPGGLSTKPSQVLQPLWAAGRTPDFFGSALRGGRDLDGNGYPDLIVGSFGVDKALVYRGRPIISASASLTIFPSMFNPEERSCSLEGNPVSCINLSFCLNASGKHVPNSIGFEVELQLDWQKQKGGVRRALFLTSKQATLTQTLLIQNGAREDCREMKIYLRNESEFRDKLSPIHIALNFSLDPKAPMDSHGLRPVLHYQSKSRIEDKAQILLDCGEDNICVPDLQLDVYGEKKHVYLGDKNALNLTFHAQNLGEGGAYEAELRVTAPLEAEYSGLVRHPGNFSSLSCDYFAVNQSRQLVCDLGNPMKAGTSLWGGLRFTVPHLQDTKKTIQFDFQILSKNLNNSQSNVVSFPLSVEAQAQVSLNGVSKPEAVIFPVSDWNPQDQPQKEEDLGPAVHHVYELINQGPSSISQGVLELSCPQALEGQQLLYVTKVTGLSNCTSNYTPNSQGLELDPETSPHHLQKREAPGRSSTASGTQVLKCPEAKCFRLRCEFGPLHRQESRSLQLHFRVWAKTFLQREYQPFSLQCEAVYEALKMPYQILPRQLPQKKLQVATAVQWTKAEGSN
T2 sequence (P09055 21-728): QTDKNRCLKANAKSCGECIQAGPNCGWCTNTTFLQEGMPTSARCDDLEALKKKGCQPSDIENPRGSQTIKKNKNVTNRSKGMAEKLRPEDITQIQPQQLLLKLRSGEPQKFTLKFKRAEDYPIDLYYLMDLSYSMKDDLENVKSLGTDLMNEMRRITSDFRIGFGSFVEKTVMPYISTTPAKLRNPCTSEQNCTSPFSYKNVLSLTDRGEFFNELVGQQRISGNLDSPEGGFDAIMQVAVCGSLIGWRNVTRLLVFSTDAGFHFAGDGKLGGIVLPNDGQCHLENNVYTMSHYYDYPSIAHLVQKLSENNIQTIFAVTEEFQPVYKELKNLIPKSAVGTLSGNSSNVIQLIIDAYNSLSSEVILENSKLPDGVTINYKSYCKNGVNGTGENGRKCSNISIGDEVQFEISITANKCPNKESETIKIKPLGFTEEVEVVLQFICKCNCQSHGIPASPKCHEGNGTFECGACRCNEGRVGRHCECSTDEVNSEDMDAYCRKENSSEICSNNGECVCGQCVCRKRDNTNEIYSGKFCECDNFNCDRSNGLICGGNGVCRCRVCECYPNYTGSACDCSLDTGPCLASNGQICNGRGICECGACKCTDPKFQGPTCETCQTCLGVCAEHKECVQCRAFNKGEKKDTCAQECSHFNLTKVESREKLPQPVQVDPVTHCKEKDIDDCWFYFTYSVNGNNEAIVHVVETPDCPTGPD
The series is described as follows: AlphaLISA integrin-ligand binding assay. The settings on record: Fig. 4B; read-out: IC50 Mouse integrin AlphaLISA assays: mα5β1. In kind it is biochemical. Here is the method:
as §1, §2, §3, §4, §5, §6, §7, §8, §9

Another series addresses T3, mouse αvβ8 (Mus musculus, UniProt P43406+Q0VBD0).
T3 construct: mαV 1 988; m β8 1 679; made in house; host or cells: Expi293
Nature of the series: AlphaLISA integrin-ligand binding assay. In kind it is biochemical. The settings on record: Fig. 4B; read-out: IC50 Mouse integrin AlphaLISA assays: mαvβ8. How it is done:
as §1, §2, §3, §4, §5, §6, §7, §8, §9

The target in the next series is T4, human αvβ5 (Homo sapiens, UniProt P06756+P18084).
T4 construct: hαV 1 992; hβ5 1 719; made in house; host or cells: Expi293
T4 sequence (P06756 31-992): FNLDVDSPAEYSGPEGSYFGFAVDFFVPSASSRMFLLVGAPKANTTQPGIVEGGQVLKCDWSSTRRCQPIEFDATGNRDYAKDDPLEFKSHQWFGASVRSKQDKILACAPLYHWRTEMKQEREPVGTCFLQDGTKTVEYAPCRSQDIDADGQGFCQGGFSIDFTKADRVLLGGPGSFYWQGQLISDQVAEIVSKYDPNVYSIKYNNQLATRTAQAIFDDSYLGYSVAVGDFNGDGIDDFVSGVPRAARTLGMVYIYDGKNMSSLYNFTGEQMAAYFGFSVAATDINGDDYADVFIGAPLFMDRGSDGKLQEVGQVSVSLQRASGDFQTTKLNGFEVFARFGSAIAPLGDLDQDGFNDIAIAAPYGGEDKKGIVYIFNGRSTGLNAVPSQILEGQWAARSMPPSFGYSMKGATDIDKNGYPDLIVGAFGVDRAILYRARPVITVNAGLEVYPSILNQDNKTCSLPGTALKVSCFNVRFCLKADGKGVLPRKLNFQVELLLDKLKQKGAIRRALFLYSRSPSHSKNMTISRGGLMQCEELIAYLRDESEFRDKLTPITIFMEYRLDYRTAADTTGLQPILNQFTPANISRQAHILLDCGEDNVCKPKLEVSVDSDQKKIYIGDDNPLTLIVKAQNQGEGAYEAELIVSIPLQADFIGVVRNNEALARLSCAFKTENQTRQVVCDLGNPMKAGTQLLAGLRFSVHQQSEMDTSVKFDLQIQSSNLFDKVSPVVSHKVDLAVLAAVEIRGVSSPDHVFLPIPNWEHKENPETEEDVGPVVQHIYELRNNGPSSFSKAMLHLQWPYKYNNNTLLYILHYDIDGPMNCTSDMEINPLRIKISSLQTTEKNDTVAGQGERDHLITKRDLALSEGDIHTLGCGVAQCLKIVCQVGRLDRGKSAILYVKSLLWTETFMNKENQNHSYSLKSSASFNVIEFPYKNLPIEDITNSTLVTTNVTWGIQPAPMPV
T4 sequence (P18084 24-719): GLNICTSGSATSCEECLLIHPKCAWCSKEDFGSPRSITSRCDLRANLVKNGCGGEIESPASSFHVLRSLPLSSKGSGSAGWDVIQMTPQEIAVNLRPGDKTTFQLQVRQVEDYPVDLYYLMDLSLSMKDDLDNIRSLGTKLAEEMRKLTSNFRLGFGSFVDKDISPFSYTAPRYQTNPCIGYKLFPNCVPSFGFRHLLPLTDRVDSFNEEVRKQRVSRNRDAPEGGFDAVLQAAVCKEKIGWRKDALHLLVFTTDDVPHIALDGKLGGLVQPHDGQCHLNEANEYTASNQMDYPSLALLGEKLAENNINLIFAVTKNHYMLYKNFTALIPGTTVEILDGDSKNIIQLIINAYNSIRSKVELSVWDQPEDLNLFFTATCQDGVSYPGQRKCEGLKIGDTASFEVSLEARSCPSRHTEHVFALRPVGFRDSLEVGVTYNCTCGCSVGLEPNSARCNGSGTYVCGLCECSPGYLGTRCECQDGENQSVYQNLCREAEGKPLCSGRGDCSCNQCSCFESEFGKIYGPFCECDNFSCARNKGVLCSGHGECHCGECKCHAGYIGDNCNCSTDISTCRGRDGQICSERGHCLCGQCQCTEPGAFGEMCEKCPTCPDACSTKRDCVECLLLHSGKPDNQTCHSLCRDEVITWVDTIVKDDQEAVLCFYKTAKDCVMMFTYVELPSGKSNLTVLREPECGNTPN
Nature of the series: AlphaLISA integrin-ligand binding assay. It is filed as biochemical. How it is done: as §1, §2, §3, §4, §5, §6, §7, §8, §9

A further series concerns the target T5, mouse αvβ5 (Mus musculus, UniProt O70309+P43406).
T5 construct: mαV 1 988; m β5 1 719; made in house; host or cells: Expi293
The series is described as follows: AlphaLISA integrin-ligand binding assay. It is filed as biochemical. The settings on record: Fig. 4B; read-out: IC50 Mouse integrin AlphaLISA assays: mαvβ5. Here is the method:
as §1, §2, §3, §4, §5, §6, §7, §8, §9

In series [1] the target is T6, mouse αvβ1 (Mus musculus, UniProt P09055+P43406). The series is described as follows: AlphaLISA integrin-ligand binding assay. In kind it is biochemical. The arrangement: mαV 1 988; m β1 1 728; made in house; host or cells: Expi293. The settings on record: Fig. 4B; read-out: IC50 Mouse integrin AlphaLISA assays: mαvβ1. Here is the method:
as §1, §2, §3
Target sequence in this assay (P43406 31-988): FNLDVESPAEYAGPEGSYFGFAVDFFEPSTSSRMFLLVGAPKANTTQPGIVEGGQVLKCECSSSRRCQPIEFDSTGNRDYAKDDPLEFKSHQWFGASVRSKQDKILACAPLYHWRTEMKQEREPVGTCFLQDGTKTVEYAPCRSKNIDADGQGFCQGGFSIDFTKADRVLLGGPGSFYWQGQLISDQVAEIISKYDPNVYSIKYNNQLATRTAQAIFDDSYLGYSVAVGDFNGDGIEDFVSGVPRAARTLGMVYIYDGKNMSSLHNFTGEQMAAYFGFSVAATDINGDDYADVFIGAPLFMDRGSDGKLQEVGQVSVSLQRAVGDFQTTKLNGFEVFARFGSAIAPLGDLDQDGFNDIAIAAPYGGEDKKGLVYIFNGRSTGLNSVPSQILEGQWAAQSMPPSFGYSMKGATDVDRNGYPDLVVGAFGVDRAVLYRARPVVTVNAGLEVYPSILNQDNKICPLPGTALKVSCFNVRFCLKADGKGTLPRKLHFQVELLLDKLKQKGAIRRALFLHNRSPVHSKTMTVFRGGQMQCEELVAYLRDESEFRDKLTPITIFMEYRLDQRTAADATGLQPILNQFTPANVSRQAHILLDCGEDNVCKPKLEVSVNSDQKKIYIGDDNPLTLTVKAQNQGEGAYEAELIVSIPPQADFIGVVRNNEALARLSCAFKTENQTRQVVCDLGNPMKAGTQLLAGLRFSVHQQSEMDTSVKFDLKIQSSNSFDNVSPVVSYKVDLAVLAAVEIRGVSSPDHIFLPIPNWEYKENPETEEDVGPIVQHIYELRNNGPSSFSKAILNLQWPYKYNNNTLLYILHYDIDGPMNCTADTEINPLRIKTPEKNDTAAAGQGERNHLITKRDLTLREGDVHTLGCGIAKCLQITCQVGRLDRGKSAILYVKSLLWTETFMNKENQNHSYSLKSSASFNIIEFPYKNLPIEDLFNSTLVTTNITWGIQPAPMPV
Target sequence in this assay (P09055 21-728): as the sequence (P09055 21-728) above
havb3 3. 0 nM 10. […]

Series [2] has as its system diabetic nephropathy model. Also noted: method as in PMID 28971604. Particulars: cited from earlier work.
The target in a further series is human αvβ6 (Homo sapiens, UniProt P06756+P18564). Nature of the series: Latent TGFβ activation assay (TMLC / CHOK1-integrin co-culture, PAI-1 luciferase). Also noted: expressed in transfected cells. In kind it is cell-based. Particulars: in words. Here is the method: (§10) Transfected mink lung epithelial cell (TMLC) cell line containing the TGFβ responsive PAI-1 promoter driving luciferase expression[29] and the CHO-K1 human and mouse αvβx integrin cell lines were grown under optimized growth conditions to 90% confluency. TMLC cells were trypsinized and plated at 25,000 cells/well in 50 μL in Costar clear bottom white walled plates. In a separate plate, 25 μL of serially diluted antibodies at 4X concentration were added to wells containing 25 μL of either 25,000 cells of human or mouse αvβx cells. After a brief mixing, the 50 μL mixture was transferred to the TMLC cell plates for a total volume of 100 μL and incubated at 37 °C for 16 h. 100 μL of ONE-Glo kit (#PRE6120) was added to each well and read after 3–5 min on the Envision plate reader.

Series [3] concerns the target T6, mouse αvβ1. Described as above. The settings on record: in words. Also noted: expressed in transfected cells. In kind it is cell-based. Here is the method:
as §10

The target of a further series is human αvβ1 (Homo sapiens, UniProt P05556+P06756). The description is as above. In kind it is cell-based. Also noted: expressed in transfected cells. Particulars: in words. How it is done:
as §10

A further series addresses human αvβ8 (Homo sapiens, UniProt P06756+P26012). Described as above. In kind it is cell-based. Also noted: expressed in transfected cells. The settings on record: in words. Here is the method: as §10
The test system of a further series is osteoporosis patients. The arrangement: method as in PMID 15687321, PMID 20398037. Particulars: 52 weeks; cited from earlier work.

Structures are written as SMILES. Read-outs that look alike come from different tables or passages of the source.

T1 sequence (P06756 31-992): as the sequence (P06756 31-992) above
T1 sequence (P05106 27-718): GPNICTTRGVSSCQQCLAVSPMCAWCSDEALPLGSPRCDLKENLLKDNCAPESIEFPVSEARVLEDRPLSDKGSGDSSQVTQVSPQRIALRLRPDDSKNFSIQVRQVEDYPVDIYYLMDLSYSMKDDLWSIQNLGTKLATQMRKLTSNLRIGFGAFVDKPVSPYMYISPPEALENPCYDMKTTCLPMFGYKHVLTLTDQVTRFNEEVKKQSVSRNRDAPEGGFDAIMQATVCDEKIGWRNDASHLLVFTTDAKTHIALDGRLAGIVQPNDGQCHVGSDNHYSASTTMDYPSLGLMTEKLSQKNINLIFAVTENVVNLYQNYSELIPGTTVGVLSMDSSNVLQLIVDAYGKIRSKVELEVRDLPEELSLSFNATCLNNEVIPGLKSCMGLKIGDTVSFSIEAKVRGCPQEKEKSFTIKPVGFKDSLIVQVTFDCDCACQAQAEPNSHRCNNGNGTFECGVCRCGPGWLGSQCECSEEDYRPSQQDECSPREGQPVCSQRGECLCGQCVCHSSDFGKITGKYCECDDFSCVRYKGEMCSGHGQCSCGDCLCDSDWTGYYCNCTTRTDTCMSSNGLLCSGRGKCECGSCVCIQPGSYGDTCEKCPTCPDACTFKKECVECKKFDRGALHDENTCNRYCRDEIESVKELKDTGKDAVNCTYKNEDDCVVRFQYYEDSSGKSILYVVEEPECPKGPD

As to `COc1ccc(C(CC(=O)O)N2CCN(CCCc3ccc4c(n3)NCCC4)C2=O)cn1` (stereo not drawn) [MK-0429], the IC50 stood at 0.15 nM at human αvβ3 (Fig. 3D, assay optimisation, read-out: IC50 human αvβ3 AlphaLISA); 1.6 nM at human αvβ3 (Fig. 4B, read-out: IC50 Human integrin AlphaLISA assays: hαvβ3); 50.3 nM at mouse α5β1; 5.3 nM at mouse αvβ8; 9.9 nM on human αvβ5 (Fig. 3D, assay optimisation, read-out: IC50 human αvβ5 AlphaLISA); 2.9 nM at human αvβ5 (Fig. 4B, read-out: IC50 Human integrin AlphaLISA assays: hαvβ5). Further, the IC50 was determined as 48.3 nM on mouse αvβ5 and 1.3 nM at mouse αvβ1 [1]. Moreover, the Proteinuria entry in [2] was “reduces”. In addition, the Renal fibrosis entry in [2] is reported as “reduces”. The “Inhibition of latent TGFβ activation, human αvβ6 co-culture” value at human αvβ6 is “strong inhibitory effect”. The “Inhibition of latent TGFβ activation, mouse αvβ1 co-culture” value on mouse αvβ1 [3] is on record as “strong inhibitory effect”. Further, on human αvβ1, the “Inhibition of latent TGFβ activation, human αvβ1 co-culture” value is recorded as “strong inhibitory effect”. Moreover, on human αvβ8, the “Inhibition of latent TGFβ activation, human αvβ8 co-culture” value is reported as “strong inhibitory effect”. Further, in the series with osteoporosis patients, the Safety profile entry is on record as “relatively well-tolerated”.

(Values after PMC7822819, “Discovery of a new class of integrin antibodies for fibrosis” (Scientific Reports, 2021).)
